Laboratory results from US10472381B2, “Sialic acid derivatives” (Reinhard Brossmer, priority 2014, dated 2019).

What follows are molecules tested against T1, CD22 (Homo sapiens, UniProt P20273) (assay: ELISA-based inhibition assay: inhibition of binding of soluble CD22 to immobilized IgM). Conditions: Table II; relative to reference compound 10 co-tested in the same assay (rIP = 1).
T1 construct: The soluble CD22 protein was expressed in the CHO-Lec1 cell line; made in house; host or cells: CHO-Lec1
T1 sequence (P20273 20-687 limits assumed): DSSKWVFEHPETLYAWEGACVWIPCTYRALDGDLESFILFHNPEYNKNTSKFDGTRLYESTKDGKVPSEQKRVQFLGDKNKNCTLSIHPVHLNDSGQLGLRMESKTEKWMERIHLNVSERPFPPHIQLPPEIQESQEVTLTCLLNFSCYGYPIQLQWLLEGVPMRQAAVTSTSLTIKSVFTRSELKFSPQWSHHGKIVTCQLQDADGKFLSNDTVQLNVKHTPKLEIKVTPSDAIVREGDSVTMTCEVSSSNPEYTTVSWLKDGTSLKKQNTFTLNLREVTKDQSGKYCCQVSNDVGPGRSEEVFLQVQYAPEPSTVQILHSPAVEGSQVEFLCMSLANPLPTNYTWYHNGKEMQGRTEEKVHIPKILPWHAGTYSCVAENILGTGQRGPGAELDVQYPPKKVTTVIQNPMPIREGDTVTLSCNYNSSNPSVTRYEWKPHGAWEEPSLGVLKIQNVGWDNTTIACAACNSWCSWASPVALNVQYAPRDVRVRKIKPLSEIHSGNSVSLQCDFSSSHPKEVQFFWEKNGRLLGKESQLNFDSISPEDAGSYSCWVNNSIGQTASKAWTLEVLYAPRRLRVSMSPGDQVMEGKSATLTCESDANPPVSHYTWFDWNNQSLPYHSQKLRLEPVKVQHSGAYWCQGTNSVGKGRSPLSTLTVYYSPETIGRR
Method: The biological activity of the substances was determined in an ELISA-based inhibition assay as described in “Eur. J. Immunol. 2012, 42, 2792-2802”. The sialic acid derivatives of the formula (I) inhibit the binding of soluble CD22 to immobilized IgM in proportion to their affinity for CD22. The soluble CD22 protein was expressed in the CHO-Lec1 cell line and isolated as described by “Eur. J. Immunol. 2012, 42, 2792-2802”. […] The increase in affinity is reported as rIP (relative inhibitory affinity).

| SMILES | rIP |
| --- | --- |
| CC(=O)N[C@@H]1[C@@H](NS(=O)(=O)c2cccc3c(N(C)C)cccc23)[C@H](O)[C@](OCCCCCC(=O)[O-])(C(=O)[O-])O[C@H]1[C@H](O)[C@H](O)CNC(=O)c1ccc(-c2ccccc2)cc1.[Na+].[Na+] [Compound 65] | 0.17 |

Same assay, conditions: Table III; relative to reference compound 17 co-tested in the same assay (rIP = 1)

| SMILES | rIP |
| --- | --- |
| CC(=O)N[C@H]1[C@H]([C@H](O)[C@H](O)CNC(=O)c2ccc(-c3ccccc3)cc2)O[C@@](OCCCCCC(=O)[O-])(C(=O)[O-])C[C@@H]1NC(=O)c1ccc(C(F)(F)F)cc1.[Na+].[Na+] [Compound 64] | 1.2 |
| CC(=O)N[C@H]1[C@H]([C@H](O)[C@H](O)CNC(=O)c2ccc(-c3ccccc3)cc2)O[C@@](OCCCCCC(=O)[O-])(C(=O)[O-])C[C@@H]1NC(=O)OCc1ccccc1.[Na+].[Na+] [Compound 66] | 1.3 |

Same assay, conditions: Table IV; relative to reference compound 66 co-tested in the same assay (rIP = 1)

| SMILES | rIP |
| --- | --- |
| CC(=O)N[C@H]1[C@H]([C@H](O)[C@H](O)CNC(=O)c2ccc(-c3ccccc3)cc2)O[C@@](OCCCCCC(=O)[O-])(C(=O)[O-])C[C@@H]1NC(=O)OCc1ccccc1.[Na+].[Na+] [Compound 66] | 1 |
| CC(=O)N[C@H]1[C@H]([C@H](O)[C@H](O)CNC(=O)c2ccc(-c3ccc(O)cc3)cc2)O[C@@](OCCCCCC(=O)[O-])(C(=O)[O-])C[C@@H]1NC(=O)OCc1ccccc1.[Na+].[Na+] [Compound 67] | 1.0 |
| CC(=O)N[C@H]1[C@H]([C@H](O)[C@H](O)CNC(=O)c2ccc(-c3ccccc3F)cc2)O[C@@](OCCCCCC(=O)[O-])(C(=O)[O-])C[C@@H]1NC(=O)OCc1ccccc1.[Na+].[Na+] [Compound 68] | 0.76 |
| COc1ccccc1-c1ccc(C(=O)NC[C@@H](O)[C@@H](O)[C@@H]2O[C@@](OCCCCCC(=O)[O-])(C(=O)[O-])C[C@H](NC(=O)OCc3ccccc3)[C@H]2NC(C)=O)cc1.[Na+].[Na+] [Compound 69] | 0.83 |
| CC(=O)N[C@H]1[C@H]([C@H](O)[C@H](O)CNC(=O)c2ccc(-c3cccs3)cc2)O[C@@](OCCCCCC(=O)[O-])(C(=O)[O-])C[C@@H]1NC(=O)OCc1ccccc1.[Na+].[Na+] [Compound 70] | 0.88 |
| CC(=O)N[C@H]1[C@H]([C@H](O)[C@H](O)CNC(=O)c2ccc(-c3cccs3)s2)O[C@@](OCCCCCC(=O)[O-])(C(=O)[O-])C[C@@H]1NC(=O)OCc1ccccc1.[Na+].[Na+] [Compound 71] | 0.28 |
| CC(=O)N[C@H]1[C@H]([C@H](O)[C@H](O)CNC(=O)Cc2ccc3ccccc3c2)O[C@@](OCCCCCC(=O)[O-])(C(=O)[O-])C[C@@H]1NC(=O)OCc1ccccc1.[Na+].[Na+] [Compound 72] | 0.91 |
| CC(=O)N[C@H]1[C@H]([C@H](O)[C@H](O)CNC(=O)c2cnc(-c3ccccc3)nc2)O[C@@](OCCCCCC(=O)[O-])(C(=O)[O-])C[C@@H]1NC(=O)OCc1ccccc1.[Na+].[Na+] [Compound 73] | 0.23 |
| CC(=O)N[C@H]1[C@H]([C@H](O)[C@H](O)CNC(=O)c2ccc(-c3ccccc3)nc2)O[C@@](OCCCCCC(=O)[O-])(C(=O)[O-])C[C@@H]1NC(=O)OCc1ccccc1.[Na+].[Na+] [Compound 74] | 0.20 |
| CC(=O)N[C@H]1[C@H]([C@H](O)[C@H](O)CNC(=O)c2ccc(Oc3ccccc3)cc2)O[C@@](OCCCCCC(=O)[O-])(C(=O)[O-])C[C@@H]1NC(=O)OCc1ccccc1.[Na+].[Na+] [Compound 75] | 0.25 |
| CC(=O)N[C@H]1[C@H]([C@H](O)[C@H](O)CNC(=O)c2cccc3ccccc23)O[C@@](OCCCCCC(=O)[O-])(C(=O)[O-])C[C@@H]1NC(=O)OCc1ccccc1.[Na+].[Na+] [Compound 76] | 0.35 |
